Experimental data taken from ChEMBL document CHEMBL3774357, “Discovery of potent and selective CDK8 inhibitors from an HSP90 pharmacophore” (Bioorg Med Chem Lett, 2016).
≈ marks a conversion by molar mass, not a printed value.

What was measured:
[1] = Thermodynamic solubility of the compound; format: physicochemical; conditions: read-out: Therm_solubility
[2] = Solubility of the compound in PBS at pH 7.4; format: physicochemical
[3] = Solubility of the compound in FaSSIF at pH 6.4; format: physicochemical
[4] = Volume of distribution at steady state in mouse; format: ADME, organism-based; conditions: in vivo, read-out: Vdss
[5] = Oral bioavailability in monkey; format: ADME, organism-based, Macaca mulatta; conditions: rhesus monkey, in vivo
[6] = Oral bioavailability in rat; format: ADME, organism-based; conditions: in vivo
[7] = Volume of distribution at steady state in monkey; format: ADME, organism-based, Macaca mulatta; conditions: rhesus monkey, in vivo; read-out: Vdss
[8] = Volume of distribution at steady state in rat; format: ADME, organism-based; conditions: in vivo, read-out: Vdss
[9] = Oral bioavailability in dog; format: ADME, organism-based, Canis lupus familiaris; conditions: in vivo
[10] = Solubility of the compound in FeSSIF at pH 5.2; format: physicochemical
[11] = Oral bioavailability in mouse; format: ADME, organism-based; conditions: in vivo
[12] = Volume of distribution at steady state in dog; format: ADME, organism-based, Canis lupus familiaris; conditions: in vivo, read-out: Vdss

Row | Compound | solubility kinetic (physchem) | further results
1 | Cn1cc(-c2ccc(Cc3n[nH]c4ccc(N5CCOCC5)cc34)cc2)cn1 | 153 µM (≈ 57.1 µg/mL) | 
2 | Cn1cc(-c2ccc(Cc3n[nH]c4ccc(-c5nccn5C)cc34)cc2)cn1 | 96 µM (≈ 35.4 µg/mL) | 
3 | CNC(=O)c1ccc2[nH]nc(CC(C)C)c2c1 | > 200 µM | 
4 | Cn1cc(-c2ccc(Cc3n[nH]c4ccc(C(=O)N5CCOCC5)cc34)cc2)cn1 | 170 µM (≈ 68.2 µg/mL) | 
5 | CNC(=O)c1ccc2[nH]nc(Cc3ccc4cnn(C)c4c3)c2c1 | 192 µM (≈ 61.3 µg/mL) | 
6 | COC1CN(C(=O)c2ccc3[nH]nc(Cc4ccc5c(cnn5C)c4)c3c2)C1 | > 200 µM | 
7 | Cn1ncc2cc(Cc3n[nH]c4ccc(C(=O)N5CC[C@H](O)C5)cc34)ccc21 | > 200 µM | 
8 | CNC(=O)c1ccc2[nH]nc(Cc3ccc(OC)c(OC)c3)c2c1 | 176 µM (≈ 57.3 µg/mL) | 
9 | Cn1ncc2cc(Cc3n[nH]c4ccc(C(=O)N5CCC(F)(F)C5)cc34)ccc21 | 157 µM (≈ 62.1 µg/mL) | 
10 | Cn1cc(-c2ccc(Cc3n[nH]c4ccc(C(=O)N5CC(F)(F)C5)cc34)cc2)cn1 | 89 µM (≈ 36.3 µg/mL) | 
11 | Cn1cc(-c2ccc(Cc3n[nH]c4ccc(C(=O)N5CCCCC5)cc34)cc2)cn1 | 106 µM (≈ 42.3 µg/mL) | 
12 | Cn1cnc(-c2ccc3[nH]nc(Cc4ccc(-c5cnn(C)c5)cc4)c3c2)c1 | 6 µM (≈ 2.21 µg/mL) | 
13 | Cn1cc(-c2ccc(Cc3n[nH]c4ccc(C(=O)N5CCNCC5)cc34)cc2)cn1 | 186 µM (≈ 74.5 µg/mL) | 
14 | CNC(=O)c1ccc2[nH]nc(Cc3ccc4c(cnn4C)c3)c2c1 | > 200 µM | solubility [2]: 6 µg/mL (≈ 18.8 µM); solubility [3]: 32 µg/mL (≈ 100 µM); Vd [4]: 0.69 L/kg; bioavailability [5]: 26%; bioavailability [6]: 88%; Vd [7]: 0.95 L/kg; Vd [8]: 0.85 L/kg; solubility thermodynamic [1]: 6 µg/mL (≈ 18.8 µM); bioavailability [9]: 85%; solubility [10]: 59 µg/mL (≈ 185 µM); bioavailability [11]: 50%; Vd [12]: 1.8 L/kg
15 | CC(=O)NCCNc1ccc2[nH]nc(Cc3ccc(-c4cnn(C)c4)cc3)c2c1 | 183 µM (≈ 71.1 µg/mL) | 
16 | Cn1cc(-c2ccc(Cc3n[nH]c4ccc(C(=O)N5CCC(F)(F)C5)cc34)cc2)cn1 | 104 µM (≈ 43.8 µg/mL) | 
17 | CNC(=O)c1ccc2[nH]nc(Cc3ccc(-c4cnn(CC(C)(C)O)c4)cc3)c2c1 | 182 µM (≈ 73.4 µg/mL) | solubility thermodynamic [1]: 26 µg/mL (≈ 64.4 µM)
18 | Cn1cc(-c2ccc(Cc3n[nH]c4ccc(-c5cc(N)ccn5)cc34)cc2)cn1 | 53 µM (≈ 20.2 µg/mL) | 
19 | CNC(=O)c1ccc2[nH]nc(Cc3cccc(C)c3)c2c1 | 167 µM (≈ 46.7 µg/mL) | 

More lines, main results first:

Row | solubility kinetic (physchem) | Compound | further results
20 | 153 µM (≈ 58.4 µg/mL) | Cn1cc(-c2ccc(Cc3n[nH]c4ccc(NS(C)(=O)=O)cc34)cc2)cn1 | 
21 | 170 µM (≈ 68.2 µg/mL) | COC1CN(C(=O)c2ccc3[nH]nc(Cc4ccc(-c5cnn(C)c5)cc4)c3c2)C1 | 
22 | 107 µM (≈ 43.6 µg/mL) | Cn1cc(-c2ccc(Cc3n[nH]c4ccc(S(=O)(=O)NC5CC5)cc34)cc2)cn1 | 
23 | 181 µM (≈ 72.7 µg/mL) | Cn1cc(-c2ccc(Cc3n[nH]c4ccc(C(=O)N5CC[C@@H](O)C5)cc34)cc2)cn1 | 
24 | 200 µM (≈ 80.3 µg/mL) | Cn1cc(-c2ccc(Cc3n[nH]c4ccc(C(=O)N5CC[C@H](O)C5)cc34)cc2)cn1 | 
25 | 196 µM (≈ 75.9 µg/mL) | Cn1cc(-c2ccc(Cc3n[nH]c4ccc(C(=O)N5CC(O)C5)cc34)cc2)cn1 | 
26 | 115 µM (≈ 39.7 µg/mL) | CC(=O)Nc1ccc2[nH]nc(Cc3ccc(-c4cnn(C)c4)cc3)c2c1 | 
27 | 169 µM (≈ 58.4 µg/mL) | CNC(=O)c1ccc2[nH]nc(Cc3ccc(-c4cnn(C)c4)cc3)c2c1 | solubility thermodynamic [1]: 6 µg/mL (≈ 17.4 µM)
28 | 147 µM (≈ 54.6 µg/mL) | Cn1cc(-c2ccc(Cc3n[nH]c4ccc(N5CCCC5=O)cc34)cc2)cn1 | 
29 | 173 µM (≈ 57.3 µg/mL) | Cn1cc(-c2ccc(Cc3n[nH]c4ccc(C(N)=O)cc34)cc2)cn1 | 
30 | 76 µM (≈ 28.2 µg/mL) | Cn1cc(-c2ccc(Cc3n[nH]c4ccc(C(=O)NC5CC5)cc34)cc2)cn1 | 
